pIC50: −log10 of the molar value.
Key:
BCL-2 transgenic mice = assay: Oral efficacy study in BCL-2 transgenic mice (splenomegaly); type: in vivo, mouse; conditions: QDX5 for 3 weeks
Protocol: The transgene was propagated on the Balb/c background.
Spleens were removed and weighed.
(§1) Spleens were excised from sacrificed mice and cell suspensions treated with a mouse erythrocyte lysing kit (R & D Systems). Total splenocyte count was determined by typan blue dye exclusion assays using hemocytometers. The percentage of B-lymphocytes was determined by fluorescence activated cell sorter (FACS) analysis SACS-CANTO, Bectin-Dickinson Inc., Mountain View, Calif.) following staining cells with Phyco-Erytrin (PE)-conjugated anti-CD19 or -B220 antibodies (Becton Dickinson, San Jose, Calif. 95131).
Representative data are shown by FIGS. 11A and 11B.

GST-BCL-XL ΔTM protein = GST-BCL-XL ΔTM protein (Homo sapiens (Human), UniProt Q07817); assay: Competitive fluorescence polarization assay (FITC-Bak BH3 peptide); type: binding; conditions: read-out: FPA IC50 (BCL-XL)
Protocol: For competitive binding assays, 100 nM GST-BCL-XL ΔTM protein was preincubated with the tested compound at varying concentrations in 47.5 μL PBS (pH=7.4) in 96-well black plates at room temperature for 10 min, then 2.5 μL of 100 nM FITC-labeled Bak BH3 peptide was added to produce a final volume of 50 μL. The wild-type and mutant Bak BH3 peptides were included in each assay plate as positive and negative controls, respectively.
IC50 was determined by fitting the experimental data to a sigmoidal dose-response nonlinear regression model (SigmaPlot 10.0.1, Systat Software, Inc., San Jose, Calif., USA). Data reported are mean of three independent experiments ±standard error (SE). […] Fluorescence polarization was measured after 10 min.

BIR3 domain of XIAP = BIR3 domain of XIAP (Homo sapiens (Human), UniProt P98170); assay: Reactivity test by [15N,1H]-correlation NMR; conditions: 1 mM gossypol, 200 μM BIR3, two hours
Protocol: Pure polyphenols were obtained from SIGMA (gossypol and purpurogallin) and/or from Microsource Discovery Systems (Purpurogallin derivatives). Reference compounds were obtained from Chembridge Corp. (San Diego). Gossypol was tested as a racemic mixture of (+) and (−) isomers. Compounds were dissolved in DMSO at 100 mM concentration and stored at −20 DC. NMR analysis was periodically performed on the compounds as a quality control, prior to further dilution for binding and displacement assays.

[1] = tested on: murine B-cells from BCL-2 transgenic mice; assay: Viability of cultured splenocytes, Annexin V-FITC/PI; type: cell-based; conditions: 18 hours; read-out: IC50, induction of apoptosis in cultured B-cells of BCL-2 transgenic mouse
Protocol: as §1
After 18 hours of incubation, % viability of splenocytes was determined by FACSort after staining cells by the use of an Annexin V-FITC/PI Apoptosis Detection kit (BioVision Inc.). Viable cells were defined by Annexin V-negative, PI-negative cells.

BCL-XL = BCL-XL (Homo sapiens (Human), UniProt Q07817); assay: 1D 1H-NMR binding assay; conditions: 4-point-rating scale; compounds 200 μM, BCL-XL 25 μM; further: key: +++: Very Active; ++: Active; +: Mild; −: Weak
Protocol: By observing the aliphatic region of the spectra, binding could be readily detected due to chemical shift changes in active site methyl groups of Ile, Leu, Thr, Val or Ala (region between −0.8 and 0.3 ppm). All experiments were performed with a 600 MHz spectrometer Bruker Avance 600 equipped with four rf channels and z-axis pulse-field gradients.

ZR75-1 cells = assay: XTT dye reduction assay; type: cell-based, human; conditions: three days, read-out: IC50, cell viability ZR75-1
Protocol: (§2) The effects of the compounds on viability of tumor cells in culture were monitored by using XTT assays with MCF7 and ZR75-1 cell lines. MCF7 cells were grown in DMEM containing 10% fetal bovine serum, penicillin/streptomycin, supplemented with 10^−10 M insulin, 1 mM sodium pyruvate and glutamine. ZR75-1 cells were grown in RPMI containing 10% fetal bovine serum, penicillin/streptomycin, supplemented with HEPES buffer, 1 mM sodium pyruvate and glutamine. Cells were regularly tested for mycoplasma contamination. Cells were seeded triplicates at an initial cell density of 1,000 cells per well. Blank wells received no cells.
(§3) Relative numbers of viable cells was determined by XTT assay. Briefly, in a 96-well plate, we added 50 μl of a mixture of 1 mg/ml of XTT (2,3-bis(2-methoxy-4-nitro-5-sulfophenyl)-5-[(phenylamino)carbonyl]-2H-tetrazolium hydroxide) (Polysciences, Washington, Pa.) containing 0.025 mM PMS (phenazine methosulfate) to each well. The 96-well plates were reincubated for an additional 4 hours to allow for XTT formazan production. Then, the contents of each plate were mixed and optical densities were determined at a wavelength of 450 nm (OD450). Net OD450 was determined after subtracting OD450 of blank wells. Low-passage HeLa cells (between passage number 10 and 20) were transfected with pcDNA3-BCL-XL or control pcDNA3 plasmids using Lipofectamine Plus reagent (Invitrogen) and selected in medium containing 800 μg/ml of G418. Immunoblot analysis of BCL-XL was accomplished as previously described.

MCF7 cells = assay: XTT dye reduction assay; type: cell-based, human; conditions: three days, read-out: IC50, cell viability MCF7
Protocol: as §2, §3

DOHH2 cell line = assay: Apoptosis induction in NHL B-cell lines, Annexin V-FITC/PI; type: cell-based; conditions: 48 hours; read-out: IC50, % viability DOHH2
Protocol: (§4) After 48 hours of incubation, % viability was determined by FACSort after staining cells by the use of an Annexin V-FITC/PI Apoptosis Detection kit (BioVision Inc.). Viable cells were defined by Annexin V-negative, PI-negative cells.

RS11846 cell line = assay: as above; type: cell-based; conditions: 48 hours; read-out: IC50, % viability RS11846
Protocol: as §4

380 cell line = assay: as above; type: cell-based; conditions: 48 hours, relative to DOHH2 and RS11846
Protocol: as §4

Sequence of BCL-XL (Q07817 whole entry): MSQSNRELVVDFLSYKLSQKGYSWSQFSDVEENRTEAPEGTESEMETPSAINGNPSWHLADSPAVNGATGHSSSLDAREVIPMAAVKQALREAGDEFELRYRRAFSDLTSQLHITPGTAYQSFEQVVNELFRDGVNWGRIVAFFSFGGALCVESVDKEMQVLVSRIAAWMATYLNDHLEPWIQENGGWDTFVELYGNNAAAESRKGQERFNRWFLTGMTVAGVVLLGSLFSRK
Sequence of GST-BCL-XL ΔTM protein (Q07817 1-209): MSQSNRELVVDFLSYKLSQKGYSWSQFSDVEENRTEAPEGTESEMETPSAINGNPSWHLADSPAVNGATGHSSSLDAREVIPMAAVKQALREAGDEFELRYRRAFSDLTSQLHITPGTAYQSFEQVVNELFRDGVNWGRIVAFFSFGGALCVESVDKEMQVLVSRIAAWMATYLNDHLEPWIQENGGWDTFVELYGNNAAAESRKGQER
Sequence of BIR3 domain of XIAP (P98170 241-356): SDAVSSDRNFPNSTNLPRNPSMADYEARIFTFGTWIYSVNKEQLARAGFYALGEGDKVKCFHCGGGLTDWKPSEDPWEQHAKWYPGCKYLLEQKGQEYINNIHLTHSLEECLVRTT

In the case of `Cc1cc2c(C(C)C)c(O)c(O)c(C=O)c2c(O)c1-c1c(C)cc2c(C(C)C)c(O)c(O)c(C=O)c2c1O` [Gossypol, gossypol], the “tolerability, low dose” value (BCL-2 transgenic mice; 0.06 mmol/kg oral) was “well tolerated”, the “shrinkage of spleen, low dose” value (BCL-2 transgenic mice; 0.06 mmol/kg oral, wet weight and B-cell count) was “induced shrinkage of spleen to a considerable extent but not significantly” and the “tolerability, high dose” value (BCL-2 transgenic mice; […] oral) was “not tolerated”. For the same molecule, the pIC50 (GST-BCL-XL ΔTM protein) was 5.57, the “reactivity with 15N-labeled BIR3, spectrum versus apo-Bir3” value (BIR3 domain of XIAP) was “No appreciable differences” and the pIC50 [1] was ~5.00. The “1D 1H-NMR Binding Assay (BCL-XL)” value (BCL-XL) was “++”, the pIC50 (ZR75-1 cells) was 5.08 and the pIC50 (MCF7 cells) was 4.88. For the same molecule, the pIC50 (DOHH2 cell line) was ~5.52, the pIC50 (RS11846 cell line) was ~5.52 and the “sensitivity of 380 cell line” value (380 cell line) was “slightly more resistant”.
